US12495818B2, “Dihydrochalcones from Balanophora harlandii” (The Coca-Cola Company, priority 2018, dated 2025)

Tested on: panelists
Assay: Sweetness enhancement taste panel (Example 2)
Assay type: in vivo, human
Conditions: 20 ppm CC-00474 + 250 ppm Rebaudioside M in acidic water (citric acid) vs control of 250 ppm Rebaudioside M and PG; served cold, sip and spit; all panelists agreed
Method: Samples were prepared with the following ingredients:
CC-00474 in PG was prepared in weighing boat and added to Reb M solution while stirring. The weighing boat was rinsed with Reb M solution. The solution was stirred visibly clear and the sample was poured into a glass bottle and stored at 4° C.
Bottles were removed from the refrigerator and about 25 ml of beverage was poured into 4 oz-plastic cups. Panelists were given mineral water to rinse their mouth before tasting and between tasting different samples. Unsalted crackers were also given to panelist to eat followed by rinsing their mouth with mineral water before tasting the next sample.
A sample of Rebaudioside M in acidic water and a sample of CC-00474 and Rebaudioside M in acidic water were given to panelists. Panelists were asked to evaluate the sweetness of samples and describe the difference of taste profile. Panelists were instructed to sip, evaluate the sweetness, and then spit the samples in cups provided for that purpose.

SMILES: COc1cc(CCC(=O)c2c(O)cc(O[C@@H]3OC(CO)[C@@H](O)[C@H](O)C3O)cc2O)ccc1O (stereo partly drawn) [CC-00474, 3-methoxyphloretin-4′-O-β-D-glucoside]
- sweetness of the sample compared with Rebaudioside M only: sweeter than the sample containing Rebaudioside M only
